≈ marks a conversion by molar mass, not a printed value.
Experiments:
Type in all cases: functional
Enterococcus faecium [1] = assay: Tested in vitro for minimum inhibitory concentration to produce antibacterial activity against Enterococcus faecium ATCC 8043
Enterococcus faecium [2] = assay: Tested in vitro for minimum inhibitory concentration to produce antibacterial activity against Enterococcus faecium ATCC 8043 in presence of erythromycin A
Escherichia coli [3] = assay: Tested in vitro for minimum inhibitory concentration to produce antibacterial activity against Escherichia coli JUHL
Escherichia coli [4] = assay: Tested in vitro for minimum inhibitory concentration to produce antibacterial activity against Escherichia coli JUHL in presence of erythromycin A
Escherichia coli [5] = assay: Tested in vitro for minimum inhibitory concentration to produce antibacterial activity against Escherichia coli SS
Escherichia coli [6] = assay: Tested in vitro for minimum inhibitory concentration to produce antibacterial activity against Escherichia coli SS in presence of erythromycin A
[7] = tested on: Staphylococcus epidermidis; assay: Tested in vitro for minimum inhibitory concentration to produce antibacterial activity against Staphylococcus epidermidis 3519
[8] = tested on: Staphylococcus epidermidis; assay: Tested in vitro for minimum inhibitory concentration to produce antibacterial activity against Staphylococcus epidermidis 3519 in presence of erythromycin A
Streptococcus pyogenes [9] = assay: Tested in vitro for minimum inhibitory concentration to produce antibacterial activity against Streptococcus pyogenes EES61
Streptococcus pyogenes [10] = assay: Tested in vitro for minimum inhibitory concentration to produce antibacterial activity against Streptococcus pyogenes EES61 in presence of erythromycin A
Streptococcus pyogenes [11] = assay: Tested in vitro for minimum inhibitory concentration to produce antibacterial activity against Streptococcus pyogenes PIU 2548
Streptococcus pyogenes [12] = assay: Tested in vitro for minimum inhibitory concentration to produce antibacterial activity against Streptococcus pyogenes PIU 2548 in presence of erythromycin A
Streptococcus agalactiae [13] = assay: Tested in vitro for minimum inhibitory concentration to produce antibacterial activity against Streptococcus agalactiae CMX 508
Streptococcus agalactiae [14] = assay: Tested in vitro for minimum inhibitory concentration to produce antibacterial activity against Streptococcus agalactiae CMX 508 in presence of erythromycin A
Staphylococcus aureus [15] = assay: Tested in vitro for minimum inhibitory concentration to produce antibacterial activity against Staphylococcus aureus 1775
Staphylococcus aureus [16] = assay: Tested in vitro for minimum inhibitory concentration to produce antibacterial activity against Staphylococcus aureus 1775 in presence of erythromycin A
Staphylococcus aureus [17] = assay: Tested in vitro for minimum inhibitory concentration to produce antibacterial activity against Staphylococcus aureus A-5278
Staphylococcus aureus [18] = assay: Tested in vitro for minimum inhibitory concentration to produce antibacterial activity against Staphylococcus aureus A-5278 in presence of erythromycin A
Staphylococcus aureus [19] = assay: Tested in vitro for minimum inhibitory concentration to produce antibacterial activity against Staphylococcus aureus A5177
Staphylococcus aureus [20] = assay: Tested in vitro for minimum inhibitory concentration to produce antibacterial activity against Staphylococcus aureus A5177 in presence of erythromycin A
Staphylococcus aureus [21] = assay: Tested in vitro for minimum inhibitory concentration to produce antibacterial activity against Staphylococcus aureus ATCC 6538P
Staphylococcus aureus [22] = assay: Tested in vitro for minimum inhibitory concentration to produce antibacterial activity against Staphylococcus aureus ATCC 6538P in presence of erythromycin A
Staphylococcus aureus [23] = assay: Tested in vitro for minimum inhibitory concentration to produce antibacterial activity against Staphylococcus aureus CMX 553
Staphylococcus aureus [24] = assay: Tested in vitro for minimum inhibitory concentration to produce antibacterial activity against Staphylococcus aureus CMX 553 in presence of erythromycin A
Staphylococcus aureus [25] = assay: Tested in vitro for minimum inhibitory concentration to produce antibacterial activity against Staphylococcus aureus CMX 642A
Staphylococcus aureus [26] = assay: Tested in vitro for minimum inhibitory concentration to produce antibacterial activity against Staphylococcus aureus CMX 642A in presence of erythromycin A
Streptococcus equinus [27] = assay: Tested in vitro for minimum inhibitory concentration to produce antibacterial activity against Streptococcus bovis A-5169
Streptococcus equinus [28] = assay: Tested in vitro for minimum inhibitory concentration to produce antibacterial activity against Streptococcus bovis A-5169 in presence of erythromycin A
Staphylococcus aureus [29] = assay: Tested in vitro for minimum inhibitory concentration to produce antibacterial activity against Staphylococcus aureus NCTC-10649M
Staphylococcus aureus [30] = assay: Tested in vitro for minimum inhibitory concentration to produce antibacterial activity against Staphylococcus aureus NCTC-10649M in presence of erythromycin A
Streptococcus pyogenes [31] = assay: Tested in vitro for minimum inhibitory concentration to produce antibacterial activity against Streptococcus pyogenes 930
Streptococcus pyogenes [32] = assay: Tested in vitro for minimum inhibitory concentration to produce antibacterial activity against Streptococcus pyogenes 930 in presence of erythromycin A

Row | Compound | MIC (Enterococcus faecium [1]) [µg/mL] | MIC (Enterococcus faecium [2]) [µg/mL] | MIC [7] [µg/mL] | MIC [8] [µg/mL] | MIC (Streptococcus pyogenes [9]) [µg/mL] | MIC (Streptococcus pyogenes [10]) [µg/mL] | MIC (Streptococcus agalactiae [13]) [µg/mL] | MIC (Streptococcus agalactiae [14]) [µg/mL] | MIC (Staphylococcus aureus [15]) [µg/mL] | MIC (Staphylococcus aureus [16]) [µg/mL] | MIC (Staphylococcus aureus [17]) [µg/mL] | MIC (Staphylococcus aureus [18]) [µg/mL] | MIC (Staphylococcus aureus [19]) [µg/mL] | MIC (Staphylococcus aureus [20]) [µg/mL] | MIC (Staphylococcus aureus [21]) [µg/mL] | MIC (Staphylococcus aureus [22]) [µg/mL] | MIC (Staphylococcus aureus [23]) [µg/mL] | MIC (Staphylococcus aureus [24]) [µg/mL] | MIC (Staphylococcus aureus [25]) [µg/mL] | MIC (Staphylococcus aureus [26]) [µg/mL] | also measured
1 | CC[C@H]1OC(=O)[C@H](C)C[C@H](C)[C@@H](O[C@@H]2O[C@H](C)C[C@H](N(C)C)[C@H]2O)[C@](C)(OC)C[C@@H](C)C(=O)[C@H](C)[C@H]2N(CCCCc3ccccc3)C(=O)O[C@]12C | 0.39 (≈ 0.534 µM) | 0.1 | 1.56 (≈ 2.13 µM) | 0.39 | 0.05 (≈ 0.0684 µM) | 0.02 | 0.1 (≈ 0.137 µM) | 0.02 | 50 (≈ 68.4 µM) | > 100 | 50 (≈ 68.4 µM) | > 100 | 1.56 (≈ 2.13 µM) | 25 | 1.56 (≈ 2.13 µM) | 0.39 | 1.56 (≈ 2.13 µM) | 0.39 | 1.56 (≈ 2.13 µM) | 0.39 | MIC (Escherichia coli [3]): > 100 µg/mL; MIC (Escherichia coli [4]): 100 µg/mL; MIC (Escherichia coli [5]): 1.56 µg/mL (≈ 2.13 µM); MIC (Escherichia coli [6]): 0.39 µg/mL; MIC (Streptococcus pyogenes [11]): 0.2 µg/mL (≈ 0.274 µM); MIC (Streptococcus pyogenes [12]): 6.2 µg/mL; MIC (Streptococcus equinus [27]): 0.02 µg/mL (≈ 0.0274 µM); MIC (Streptococcus equinus [28]): 0.02 µg/mL; MIC (Staphylococcus aureus [29]): 1.56 µg/mL (≈ 2.13 µM); MIC (Staphylococcus aureus [30]): 0.39 µg/mL
2 | CC[C@H]1OC(=O)[C@H](C)C[C@H](C)[C@@H](O[C@@H]2O[C@H](C)C[C@H](N(C)C)[C@H]2O)[C@](C)(OC)C[C@@H](C)C(=O)[C@H](C)[C@H]2N(CCc3ccc(Oc4ccccc4)cc3)C(=O)O[C@]12C | 1.56 (≈ 1.96 µM) | 0.05 | 12.5 (≈ 15.7 µM) | 0.39 | 1.56 (≈ 1.96 µM) | 0.02 | 1.56 (≈ 1.96 µM) | 0.05 | 25 (≈ 31.4 µM) | > 100 | 25 (≈ 31.4 µM) | > 100 | 6.2 (≈ 7.8 µM) | 12.5 | 12.5 (≈ 15.7 µM) | 0.39 | 6.2 (≈ 7.8 µM) | 0.39 | 12.5 (≈ 15.7 µM) | 0.39 | MIC (Streptococcus pyogenes [31]): 6.2 µg/mL (≈ 7.8 µM); MIC (Streptococcus pyogenes [32]): > 100 µg/mL; MIC (Streptococcus pyogenes [11]): 3.1 µg/mL (≈ 3.9 µM); MIC (Streptococcus pyogenes [12]): 6.2 µg/mL; MIC (Streptococcus equinus [27]): 1.56 µg/mL (≈ 1.96 µM); MIC (Streptococcus equinus [28]): 0.05 µg/mL; MIC (Staphylococcus aureus [29]): 6.2 µg/mL (≈ 7.8 µM); MIC (Staphylococcus aureus [30]): 0.39 µg/mL
3 | CC[C@H]1OC(=O)[C@H](C)C[C@H](C)[C@@H](O[C@@H]2O[C@H](C)C[C@H](N(C)C)[C@H]2O)[C@](C)(OC)C[C@@H](C)C2=NCCN3C(=O)O[C@@]1(C)[C@H]3[C@H]2C | 0.78 (≈ 1.25 µM) | 0.05 | 12.5 (≈ 20 µM) | 0.39 | 0.39 (≈ 0.625 µM) | 0.02 | 0.39 (≈ 0.625 µM) | 0.05 | > 100 | > 100 | > 100 | > 100 | 6.2 (≈ 9.94 µM) | 12.5 | 6.2 (≈ 9.94 µM) | 0.39 | 6.2 (≈ 9.94 µM) | 0.39 | 6.2 (≈ 9.94 µM) | 0.39 | MIC (Streptococcus pyogenes [31]): > 100 µg/mL; MIC (Streptococcus pyogenes [32]): > 100 µg/mL; MIC (Streptococcus pyogenes [11]): 0.78 µg/mL (≈ 1.25 µM); MIC (Streptococcus pyogenes [12]): 6.2 µg/mL; MIC (Streptococcus equinus [27]): 0.39 µg/mL (≈ 0.625 µM); MIC (Streptococcus equinus [28]): 0.05 µg/mL; MIC (Staphylococcus aureus [29]): 6.2 µg/mL (≈ 9.94 µM); MIC (Staphylococcus aureus [30]): 0.39 µg/mL
4 | CC[C@H]1OC(=O)[C@H](C)C[C@H](C)[C@@H](O[C@@H]2O[C@H](C)C[C@H](N(C)C)[C@H]2O)[C@](C)(OC)C[C@@H](C)/C(=N\OC)[C@H](C)[C@@H](O)[C@]1(C)O | 100 (≈ 166 µM) | 0.1 | 100 (≈ 166 µM) | 0.2 | 6.2 (≈ 10.3 µM) | 0.01 | 25 (≈ 41.5 µM) | 0.02 | > 100 | > 100 | > 100 | > 100 | 100 (≈ 166 µM) | 6.2 | 100 (≈ 166 µM) | 0.2 | 100 (≈ 166 µM) | 0.39 | 100 (≈ 166 µM) | 0.39 | MIC (Escherichia coli [3]): > 100 µg/mL; MIC (Escherichia coli [4]): 50 µg/mL; MIC (Escherichia coli [5]): 6.2 µg/mL (≈ 10.3 µM); MIC (Escherichia coli [6]): 0.39 µg/mL; MIC (Streptococcus pyogenes [31]): 100 µg/mL (≈ 166 µM); MIC (Streptococcus pyogenes [32]): > 100 µg/mL; MIC (Streptococcus equinus [27]): 3.1 µg/mL (≈ 5.14 µM); MIC (Streptococcus equinus [28]): 0.01 µg/mL; MIC (Staphylococcus aureus [29]): 100 µg/mL (≈ 166 µM); MIC (Staphylococcus aureus [30]): 0.39 µg/mL

From ChEMBL document CHEMBL1152085, “Novel 3-deoxy-3-descladinosyl-6-O-methyl erythromycin a analogues. Synthesis and in vitro activity” (1997)
